Assay results published in US5422359A, “α-aminoketone derivatives” (Mitsubishi Kasei Corporation, priority 1992, dated 1995).

Target: T1, m-calpain (Rattus norvegicus, UniProt Q07009)
T1 construct: m-calpain was purified from a brain of rat; from tissue; host or cells: rat brain
T1 sequence (Q07009 20-700 limits assumed): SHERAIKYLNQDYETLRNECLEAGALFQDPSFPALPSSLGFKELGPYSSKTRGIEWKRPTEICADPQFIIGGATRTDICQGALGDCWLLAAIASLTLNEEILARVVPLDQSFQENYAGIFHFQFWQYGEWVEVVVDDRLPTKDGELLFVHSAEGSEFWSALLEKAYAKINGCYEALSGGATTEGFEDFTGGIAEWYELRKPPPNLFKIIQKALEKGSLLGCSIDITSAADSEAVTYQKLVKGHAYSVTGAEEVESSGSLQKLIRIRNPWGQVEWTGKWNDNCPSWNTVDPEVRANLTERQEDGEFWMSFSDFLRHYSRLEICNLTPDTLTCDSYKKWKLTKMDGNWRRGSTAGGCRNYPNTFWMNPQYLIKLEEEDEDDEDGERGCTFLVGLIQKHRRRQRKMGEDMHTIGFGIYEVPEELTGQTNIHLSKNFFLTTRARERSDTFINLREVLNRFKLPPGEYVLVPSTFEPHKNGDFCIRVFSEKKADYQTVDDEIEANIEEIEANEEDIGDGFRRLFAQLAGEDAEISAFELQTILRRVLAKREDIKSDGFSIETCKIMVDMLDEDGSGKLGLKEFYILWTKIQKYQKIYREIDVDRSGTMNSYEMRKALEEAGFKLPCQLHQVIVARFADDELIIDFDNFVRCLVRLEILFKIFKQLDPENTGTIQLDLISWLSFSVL
T1 sequence (Q64537 1-270 partner): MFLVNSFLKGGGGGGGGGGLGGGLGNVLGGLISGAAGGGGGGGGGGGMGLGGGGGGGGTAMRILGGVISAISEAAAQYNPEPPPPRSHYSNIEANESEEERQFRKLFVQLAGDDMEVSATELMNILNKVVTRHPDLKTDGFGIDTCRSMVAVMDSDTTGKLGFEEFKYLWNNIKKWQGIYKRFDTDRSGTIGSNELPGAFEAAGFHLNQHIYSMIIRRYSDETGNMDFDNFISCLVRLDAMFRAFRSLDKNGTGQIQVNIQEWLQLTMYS
Experiment: Measurement of inhibitory activity against calpain
Type: biochemical
Conditions: m-calpain purified from a brain of rat; read-out: 50% inhibitory concentration (IC50)
Procedure: Measurement of Inhibitory Activity against Calpain
Through the known method disclosed in Journal of Biological Chemistry, vol. 259, p.3210, (1984), m-calpain was purified from a brain of rat. The inhibitory activity against it was measured and determined according to the method disclosed in Journal of Biological Chemistry, vol. 259, p.12489 […].

For `CCCC[C@H](NC(=O)[C@H](CC(C)C)NC(=O)OCc1ccccc1)C(=O)CCCc1ccco1` [Example 5], the IC50 was 10.1 µM.
